# What was measured:
# [1] = tested on: Staphylococcus aureus ACTT 6538; assay: In vitro bacteria attachment assay on coated mesh discs in SST medium; format: cell-based; conditions: serum containing media; same TU dosage alone or combined with PS
# Procedure: (§1) Taurolidine was dissolved at 4% wt./vol. in a 70% acetone 30% water vol./vol. mixture. Protamine sulfate was dissolved at 10% wt./vol. in water under warming. 50 μl of the taurolidine (TU) solution and 20 μl of the protamine (PS) solution were applied to each mesh disk using a pipette and allowed to dry at 50° C. until the majority of the liquid was gone and then stored under vacuum. First the taurolidine solution was applied, and then immediately thereafter the protamine sulfate solution was applied. The in vitro bacteria attachment assay was developed for its utility of indicating biofilm prevention potential of prototype mesh. Since bacterial attachment to a surface is the first step of biofilm formation, a surface treatment that inhibits bacterial attachment would reduce the chance of subsequent biofilm formation. The assay was conducted in SST (Serum Saline TSB) medium to mimic in vivo and clinical conditions. The formulation of SST is Tryptic Soy Broth (TSB):serum:saline in the ratio of 1:2:7. Each test article was incubated in SST inoculated with Staphylococcus aureus ACTT 6538 or Escherichia coli ATCC 25922 at about 6 Log CFU/ml. […] Viable bacteria populations were measured by plate count on TSA (Tryptic Soy agar) medium contain neutralizing agents. […]
# [2] = tested on: Escherichia coli ATCC 25922; assay: as above; format: cell-based; conditions: serum containing media; same TU dosage alone or combined with PS
# Procedure: as §1
# [3] = cited from earlier work
smiles,measurement,setting,value
"O=S1(=O)CCN(CN2CCS(=O)(=O)NC2)CN1 [TU, bis(1,1-dioxoperhydro-1,2,4-thiadiazinyl-4)-methane]",Inhibition of attachment by S. aureus to treated mesh surface,[1],less inhibition than the combination
same,Inhibition of attachment by E. coli to treated mesh surface,[2],less inhibition than the combination
same,Cumulative dose shown to be safe and well tolerated,"[3]; cumulative dose, up to and exceeding",exceeding 300 g
same,Systemic dose shown to be safe and well tolerated,[3]; systemic dose,exceeding 40 g/day
